Assay results reported in patent US8853188B2, “Compositions and methods for cancer treatment” (Women and Infants Hospital of RI, Inc., priority 2005, dated 2014).

Experiments:
Assay type in all cases: cell-based
panel of cancer cells = test: Antiproliferative and cytotoxic activity on a panel of cancer cells (MTS, 96 well plates)
Description: A panel of cancer cells is used to evaluate the antiproliferative and cytotoxic activities of B3CD and related analogs. The cells include colon (Colo), breast (MCF-7 and MDA-MB-231), lung (A549), prostate PC3 and LNCaP), melanoma (SK-MEL-31), renal (Caki-1), ovarian (OVCAR-3), bladder (T24), pancreatic (BxPC-3), hepatocarcinoma (Hep3B), neuroblastoma (SH-SY5Y), glioblastoma (SNB-19), medulloblastoma (D283 Med), skin (LS123), squamous cell carcinoma (Scc-15), acute promyelocytic leukemia (APL), myeloblastic (HL-60) and myelomonocytic (U937).
The anticancer activity testing will be carried out by high throughput screening. The cancer cells will be cultured in 96 well plates and treated with the library. B3CD has been tested in this system and was effective at a 200 nM dose. For general screening, 2-200 nM doses will be used. Cells will be treated with the compounds for 12, 24, 48 and 72 hours. A 96 well plate format allows testing a large number of compounds simultaneously. An MTS based colorimetric method of evaluation of proliferation will be utilized, which is widely used in cancer drug discovery. The fingerprint of profiled drugs using 60 cell-line screening program by NCl using COMPARE algorithm (Paull K D, Shoemaker R H, Hodes L, Monks A, Scudiero D A, Rubinstein L, Plowman J, Boyd M R. Display and analysis of patterns of differential activity of drugs against human tumor cell lines: development of mean graph and COMPARE algorithm. J Natl Cancer Inst 1989; 81:1088).
(§1) Materials and methods. Proliferation was measured by MTS and BrdU incorporation assays. Apoptosis was assessed by DNA fragmentation, Cell Death Detection ELISA and caspase-3-assays. Effect of B3CD on TrkB signaling by BDNF was assessed by Western Blot analysis of AKT and ERK phosphorylation. The effect on angiogenesis was determined by chick chorioallantoic membrane (CAM) assay and aortic ring assay.

breast cells = test: Proliferation (MTS, BrdU), FIG. 3
Protocol: as §1
(§2) B3CD was tested on the panel of cell described above. […] Such cell-type specificity is not uncommon. […] However, keratinocytes were not affected by B3CD (FIG. 4A; Lane-2). In addition, caspase-3 activity was increased by B3CD (FIG. 4B). These studies indicated an underlying apoptotic mechanism in the anticancer activity of B3CD.

ovarian cancer cells = test: Proliferation (MTS, BrdU), FIG. 3
Protocol: as §1, §2

pancreatic cells = test: Proliferation (MTS, BrdU), FIG. 3
Protocol: as §1, §2

prostate cancer cells = test: Proliferation (MTS, BrdU), FIG. 3
Protocol: as §1, §2

neuroblastic cells = test: Apoptosis (DNA fragmentation, Cell Death Detection ELISA), FIG. 4A
Protocol: as §1, §2

[1] = test system: SK-N-SH, SH-Sy5Y, SMS-KCN and SMS-R neuroblastic cells; test: Viability and proliferation of neuroblastoma cells, 48 hrs; parameters: inhibition of proliferation: dose or concentration left out as unconfirmed
Protocol: as §1
(§3) Neuroblastoma cells were treated with B3CD for 48 hrs. […] AT 0.5 nM, B3CD inhibited >50% (p<0.035) and >90% at […] (p<0.01) viability and proliferation respectively.

TrkB signaling by BDNF = test: Effect on TrkB signaling by BDNF (Western Blot); settings: neuroblastoma cells
Protocol: as §1, §3

SK-N-SH cells [2] = test: Cell viability by MTS assay; settings: 48 hours
Protocol: SK-N-SH and SH-SY5Y neuroblastic cells were treated with increasing doses of calcidiol or B3CD (0, 25, 50, 100, 200, 400 and 800 nM) for 48 hours. Cell viability was assessed by MTS assay and proliferation was determined by BrdU incorporation assay.

SH-SY5Y cells = test: DNA laddering by agarose gel electrophoresis; settings: 250 nM, 48 hours
Protocol: (§4) Initially, during regular microscopic examination of the B3CD treated cells, the cells were condensing and floating in the culture dishes showing indications of apoptosis. In order to determine apoptosis, SK-N-SH and SH-SY5Y cells were treated with 250 nM B3CD for 48 hours. DNA was isolated and analyzed by agarose gel electrophoresis.

SK-N-SH cells [3] = test: DNA laddering by agarose gel electrophoresis; settings: 250 nM, 48 hours
Protocol: as §4

SK-N-SH cells [4] = test: Cell cycle analysis; settings: 400 nm
SMS-KCNR cells = test: Proliferation of apoptosis-resistant NB cells; settings: data not shown
Protocol: NB is characterized with defective apoptotic pathways. […] Neuronal (N-) type SH-SY5Y and IMR-32 cells, and stromal (S-) type SMS-KCNR cells which are resistant to apoptosis were used. […] A defect in caspase-8 or its activation causes resistance to apoptosis and in turn to chemotherapy in all these cells. On the other hand, these cells carry intact intrinsic apoptotic pathway, and executioner caspase-3 is activated by caspase-9 route.
(§5) In depth studies were carried out to assess the activation of intrinsic and extrinsic apoptotic pathways. […] Caspase-9 was activated by B3CD in these cells (FIG. 10B), indicating an active role of intrinsic pathway of apoptosis. […] However, caspase-8 was undetectable in IMR-32 and SH-SY5Y cells.

caspase-3 [5] = test: Caspase-3 immunoblot in NB cells; settings: SMS-KCNR, IMR-32 and SH-SY5Y cells
Protocol: FIG. 10A. Caspase-3 immunoblot.
as §5

Caspase-9 = Caspase-9 immunoblot in NB cells; settings: SMS-KCNR, IMR-32 and SH-SY5Y cells
Protocol: FIG. 10B. Caspase-9 immunoblot.
as §5

[6] = test system: Human umbilical vein endothelial cells (HUVEC); test: Endothelial cell viability / proliferation assay; settings: 25-400 nM, 24 hours
Protocol: (§6) Human umbilical vein endothelial cells (HUVEC) were treated with B3CD (25, 50, 100, 200 and 400 nM) for 24 hours and proliferation was measured as before. Vehicle and CD treated controls were used in each experiment. […] Following the treatment with B3CD, the endothelial cells were rounded up and floated, showing indications of apoptosis similar to NB.

[7] = test system: Human umbilical vein endothelial cells (HUVEC); test: Endothelial cell BrdU incorporation assay; settings: 25-400 nM, 24 hours
Protocol: as §6

endothelial cells = test: Apoptosis in endothelial cells (DNA fragmentation)
Description: (§7) Apoptosis in EC by B3CD was studied by DNA fragmentation and caspase-3 activation analyses as before.

caspase-3 [8] = test: Caspase-3 activation in endothelial cells; settings: data not shown
Description: as §7

C=C1CC[C@H](OC(=O)CBr)C/C1=C/C=C1\CCC[C@]2(C)[C@@H]([C@H](C)CCCC(C)(C)O)CC[C@@H]12 [B3CD, bromoacetic acid 3-{2-[1-(5-hydroxy-1,5-dimethyl-hexyl)-7a-methyl-octahydro-inden-4-ylidene]-ethylidene}-4-methylene-cyclohexyl ester]
anticancer activity in high throughput screening system (panel of cancer cells; 200 nM dose): effective | cytotoxicity (panel of cancer cells; preliminary studies): exhibits cytotoxicity | effect on proliferation (breast cells): did not show an effect on proliferation | antiproliferative and cytotoxic effects (ovarian cancer cells): potent antiproliferative and cytotoxic effects | effect on proliferation (pancreatic cells): did not show an effect on proliferation | antiproliferative and cytotoxic effects (prostate cancer cells): potent antiproliferative and cytotoxic effects | DNA laddering (apoptosis) (neuroblastic cells): distinct DNA laddering characteristic of apoptosis | induction of apoptosis (neuroblastic cells): induced rapid apoptosis | inhibition of proliferation (in words) [1]: dose dependent manner | cytotoxicity at 0.0005 µM ([1]; Neuroblastoma cell, 0.5 nM, p<0.035, read-out: inhibition of viability): > 50% | inhibition of proliferation ([1]; p<0.01): > 90% | TrkB signaling by BDNF (TrkB signaling by BDNF): inhibited | viability of SK-N-SH cells (in words) (SK-N-SH cells [2]; 0-800 nM): dose dependent decrease | viability at 0.2 µM (SK-N-SH cells [2]; Homo sapiens, SK-N-SH, 200 nM): < 20% | DNA laddering (SH-SY5Y cells): distinct DNA laddering pattern characteristic of apoptosis | DNA laddering (SK-N-SH cells [3]): distinct DNA laddering pattern characteristic of apoptosis | apoptotic cells (SK-N-SH cells [4]; 7% in control): 45% | cell cycle effect (SK-N-SH cells [4]; data not shown): G0/G1 block, inhibition of S-phase | inhibition of proliferation (SMS-KCNR cells): dose dependent inhibition of proliferation | caspase-3 activation (immunoblot) (caspase-3 [5]): activated | caspase-9 activation (immunoblot) (Caspase-9): activated | proliferation of EC [6]: strongly inhibited the proliferation | viability of EC [6]: dose dependent decrease in viability | BrdU incorporation [7]: strongly inhibited BrdU incorporation | DNA fragmentation (endothelial cells): DNA fragmentation characteristic of apoptosis | induction of apoptosis (endothelial cells; data not shown): induced apoptosis | increase in caspase-3 activity (caspase-3 [8]): 5 fold
